Laboratory results reported in ChEMBL document CHEMBL1155722, “Biological and mechanistic activities of xanthorrizol and 4-(1',5'-dimethylhex-4'-enyl)-2-methylphenol isolated from Iostephane heterophylla” (2001).
Converted amounts (≈) assume the structure as drawn. Each block holds one compound with its values, some of them ahead of it.

Legend:
[1] = tested on: Enterococcus faecium; assay: Antimicrobial activity against vancomycin-resistant Enterococcus faecium 379 after 18 hrs by microbroth dilution method; type: functional; conditions: Enterococcus faecium, 379, 18 h
[2] = tested on: Bacillus subtilis; assay: Antimicrobial activity against Bacillus subtilis 327 after 18 hrs by microbroth dilution method; type: functional; conditions: Bacillus subtilis, 327, 18 h
[3] = tested on: Staphylococcus aureus; assay: Antimicrobial activity against methicillin-resistant Staphylococcus aureus 310 after 18 hrs by microbroth dilution method; type: functional; conditions: Staphylococcus aureus, 310, 18 h
[4] = tested on: Enterococcus faecium; assay: Antimicrobial activity against Enterococcus faecium 436 after 18 hrs by microbroth dilution method; type: functional; conditions: Enterococcus faecium, 436, 18 h
[5] = tested on: Klebsiella pneumoniae; assay: Antimicrobial activity against Klebsiella pneumoniae 425 after 18 hrs by microbroth dilution method; type: functional; conditions: Klebsiella pneumoniae, 425, 18 h
[6] = tested on: Staphylococcus aureus; assay: Antimicrobial activity against Staphylococcus aureus ATCC 25923 after 18 hrs by microbroth dilution method; type: functional; conditions: ATCC 25923, 18 h
[7] = tested on: Escherichia coli; assay: Antimicrobial activity against Escherichia coli 389 after 18 hrs by microbroth dilution method; type: functional; conditions: Escherichia coli, 389, 18 h
[8] = tested on: Pseudomonas aeruginosa; assay: Antimicrobial activity against Pseudomonas aeruginosa 339 after 18 hrs by microbroth dilution method; type: functional; conditions: Pseudomonas aeruginosa, 339, 18 h
[9] = tested on: Escherichia coli; assay: Antimicrobial activity against Escherichia coli ATCC 25922 after 18 hrs by microbroth dilution method; type: functional; conditions: ATCC 25922, 18 h
[10] = tested on: Candida albicans; assay: Antimicrobial activity against Candida albicans 54 after 18 hrs by microbroth dilution method; type: functional; conditions: Candida albicans, 54, 18 h
[11] = tested on: Staphylococcus aureus; assay: Antimicrobial activity against methicillin-sensitive Staphylococcus aureus 375 after 18 hrs by microbroth dilution method; type: functional; conditions: Staphylococcus aureus, 375, 18 h
[12] = Ratio of LD50 for CD1 mouse to ED50 for Staphylococcus aureus infected in single subcutaneously dosed CD1 moue
[13] = tested on: Staphylococcus aureus; assay: Antimicrobial activity against Staphylococcus aureus infected in CD1 mouse administered single oral dose after 7 days; type: functional; conditions: 168 h
[14] = tested on: Staphylococcus aureus; assay: Antimicrobial activity against Staphylococcus aureus infected in CD1 mouse administered subcutaneously after 30 mins infection measured after 7 days; type: functional; conditions: sc
[15] = tested on: Staphylococcus aureus; assay: Antimicrobial activity against Staphylococcus aureus after 18 hrs by micro-broth dilution method; type: functional

SMILES: CC1(C)S[C@@H]2[C@H](NC(=O)Cc3ccccc3)C(=O)N2[C@H]1C(=O)O [PENICILLIN G]
- MIC [1]: 32 mg/L (≈ 95.7 µM)
- MIC [2]: 32 mg/L (≈ 95.7 µM)
- MIC [3]: 64 mg/L (≈ 191 µM)
- MIC [4]: 32 mg/L (≈ 95.7 µM)
- MIC [5]: 128 mg/L (≈ 383 µM)
- MIC [6]: 0.06 mg/L (≈ 0.179 µM)
- MIC [7]: 2 mg/L (≈ 5.98 µM)
- MIC [8]: > 128 mg/L
- MIC [9]: 128 mg/L (≈ 383 µM)
- MIC [10]: > 128 mg/L
- MIC [11]: 0.06 mg/L (≈ 0.179 µM)

SMILES: CN[C@H](CC(C)C)C(=O)N[C@H]1C(=O)N[C@@H](CC(N)=O)C(=O)N[C@H]2C(=O)N[C@H]3C(=O)N[C@H](C(=O)N[C@H](C(=O)O)c4cc(O)cc(O)c4-c4cc3ccc4O)[C@H](O)c3ccc(c(Cl)c3)Oc3cc2cc(c3O[C@@H]2O[C@H](CO)[C@@H](O)[C@H](O)[C@H]2O[C@H]2C[C@](C)(N)[C@H](O)[C@H](C)O2)Oc2ccc(cc2Cl)[C@H]1O [VANCOMYCIN]
- Ratio LD50/ED50 [12]: >1000
- ED50 [13]: 230 mg/kg
- ED50 [14]: 1 mg/kg

- MIC [15]: 128 mg/L (≈ 423 µM)
SMILES: C[C@@]12C[C@@]34CC[C@H]5[C@@](C)(CCC[C@]5(C)C(=O)O)[C@@H]3C[C@H]1[C@H]2C4
